What was measured:
[1] = molecular target: recombinant human HDAC6 (Homo sapiens (Human), UniProt Q9UBN7); assay: Enzymatic screening, HDAC6 inhibition (fluorogenic FdL_G substrate); assay type: biochemical
Procedure, shortened: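 Enzyme was preincubated with compound (8 doses, triplicate, 1% DMSO) in 25 mM Tris-HCl pH 8, 130 mM NaCl, 0.05% Tween-20, 10% glycerol, with BSA. A FLUOR DE LYS-Green substrate was then added, and fluorescence was read after developer plus 2 μM TSA.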

[2] = molecular target: recombinant human HDAC1 (Homo sapiens (Human), UniProt Q13547); assay: Enzymatic screening, HDAC1 inhibition (fluorogenic FdL_G substrate); assay type: biochemical
Procedure, shortened: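 Recombinant human HDAC1 inhibition was measured fluorometrically using the FLUOR DE LYS-Green (FdL_G) substrate. Compounds at 8 doses (1% DMSO final) in Tris-HCl pH 8 buffer with NaCl, Tween-20 and glycerol were preincubated in triplicate with enzyme and 1 mg/mL BSA, then given substrate. Developer I plus 2 μM TSA was added, and fluorescence read after 25 minutes in the dark.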

Chain of recombinant human HDAC1 (Q13547 whole entry): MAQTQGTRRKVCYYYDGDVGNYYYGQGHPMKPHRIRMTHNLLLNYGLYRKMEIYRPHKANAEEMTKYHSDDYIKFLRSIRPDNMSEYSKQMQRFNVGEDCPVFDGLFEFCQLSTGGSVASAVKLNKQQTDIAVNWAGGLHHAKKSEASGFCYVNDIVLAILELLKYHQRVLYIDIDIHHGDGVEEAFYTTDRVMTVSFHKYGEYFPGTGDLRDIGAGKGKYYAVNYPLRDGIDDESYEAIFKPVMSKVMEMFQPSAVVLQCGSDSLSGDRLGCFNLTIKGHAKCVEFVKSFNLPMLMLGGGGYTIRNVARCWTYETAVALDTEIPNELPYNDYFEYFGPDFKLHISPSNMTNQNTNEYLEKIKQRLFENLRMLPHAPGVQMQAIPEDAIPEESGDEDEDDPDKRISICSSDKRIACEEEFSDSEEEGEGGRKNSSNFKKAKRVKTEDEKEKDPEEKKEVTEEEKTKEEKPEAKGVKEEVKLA
Chain of recombinant human HDAC6 (Q9UBN7 whole entry): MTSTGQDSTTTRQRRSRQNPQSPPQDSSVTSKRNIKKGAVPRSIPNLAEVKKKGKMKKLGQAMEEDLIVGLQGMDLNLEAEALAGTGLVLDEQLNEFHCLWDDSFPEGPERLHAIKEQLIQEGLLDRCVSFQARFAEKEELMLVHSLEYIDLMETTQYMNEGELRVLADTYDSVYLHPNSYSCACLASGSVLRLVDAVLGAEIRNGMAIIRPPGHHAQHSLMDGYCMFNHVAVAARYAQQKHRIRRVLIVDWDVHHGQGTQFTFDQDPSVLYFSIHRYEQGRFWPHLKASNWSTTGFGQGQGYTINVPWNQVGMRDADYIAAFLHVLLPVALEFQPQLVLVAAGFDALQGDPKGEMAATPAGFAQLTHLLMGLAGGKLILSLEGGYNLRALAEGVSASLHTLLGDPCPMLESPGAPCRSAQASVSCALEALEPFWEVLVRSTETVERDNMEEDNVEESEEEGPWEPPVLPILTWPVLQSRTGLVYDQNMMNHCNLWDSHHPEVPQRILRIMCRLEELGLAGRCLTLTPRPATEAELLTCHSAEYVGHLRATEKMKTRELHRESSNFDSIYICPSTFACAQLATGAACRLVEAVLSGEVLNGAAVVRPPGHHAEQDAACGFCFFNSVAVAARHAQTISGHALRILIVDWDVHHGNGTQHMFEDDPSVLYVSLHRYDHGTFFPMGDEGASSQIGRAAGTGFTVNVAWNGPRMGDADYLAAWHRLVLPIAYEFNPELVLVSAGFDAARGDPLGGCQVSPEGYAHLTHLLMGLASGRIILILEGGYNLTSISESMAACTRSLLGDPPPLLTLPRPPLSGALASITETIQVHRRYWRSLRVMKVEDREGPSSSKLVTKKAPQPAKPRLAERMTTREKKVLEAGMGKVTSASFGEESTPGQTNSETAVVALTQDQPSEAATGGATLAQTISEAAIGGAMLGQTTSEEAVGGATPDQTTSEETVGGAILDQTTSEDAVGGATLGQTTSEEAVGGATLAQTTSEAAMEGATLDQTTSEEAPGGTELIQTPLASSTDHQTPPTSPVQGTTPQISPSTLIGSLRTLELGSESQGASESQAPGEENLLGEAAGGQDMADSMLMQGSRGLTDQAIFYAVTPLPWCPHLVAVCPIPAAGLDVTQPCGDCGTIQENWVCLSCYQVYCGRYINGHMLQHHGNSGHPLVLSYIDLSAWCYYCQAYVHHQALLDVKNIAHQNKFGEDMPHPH

Row | SMILES | IC50 [1] [nM] | IC50 [2] [nM]
1 | CN1CC(=O)Nc2cc(-c3cn(Cc4c(F)cc(-c5nnc(C(F)F)o5)cc4F)nn3)ccc2C1 [Compd. 237, 8-(1-(4-(5-(difluoromethyl)-1,3,4-oxadiazol-2-yl)-2,6-difluorobenzyl)-1H-1,2,3-triazol-4-yl)-4-methyl-1,3,4,5-tetrahydro-2H-benzo[e][1,4]diazepin-2-one] | 210 | > 200000
2 | FC(F)c1nnc(-c2ccc(Cn3cnc(-c4ccc(NC5=NCCN5)cc4)c3)c(Cl)c2)o1 [compound 358, N-[4-[1-[[2-chloro-4-[5-(difluoromethyl)-1,3,4-oxadiazol-2-yl]phenyl]methyl]imidazol-4-yl]phenyl]-4,5-dihydro-1H-imidazol-2-amine] | 52 | 124000
3 | O=C(Nc1ccc(-c2cn(Cc3ncc(-c4nnc(C(F)F)o4)cn3)nn2)cn1)C(F)F [Compd. 88, N-(5-(1-((5-(5-(difluoromethyl)-1,3,4-oxadiazol-2-yl)pyrimidin-2-yl)methyl)-1H-1,2,3-triazol-4-yl)pyridin-2-yl)-2,2-difluoroacetamide] | 34 | > 200000
4 | O=C(c1ccc(-c2nnn(Cc3ccc(-c4nnc(C(F)F)o4)cc3)n2)cc1)N1CCOCC1 [compound 230, (4-(2-(4-(5-(difluoromethyl)-1,3,4-oxadiazol-2-yl)benzyl)-2H-tetrazol-5-yl)phenyl)(morpholino)methanone] | 187 | > 200000
5 | CN(C)C(=O)Nc1cc(-c2nnn(Cc3ccc(-c4nnc(C(F)F)o4)cc3)n2)ccc1O [compound 31, 3-(5-(2-(4-(5-(difluoromethyl)-1,3,4-oxadiazol-2-yl)benzyl)-2H-tetrazol-5-yl)-2-hydroxyphenyl)-1,1-dimethylurea] | 14 | > 200000
6 | CN1CCN(c2ccc(-c3nnn(Cc4ccc(-c5nnc(C(F)F)o5)cc4)n3)cn2)CC1 [compound 212, 2-(difluoromethyl)-5-(4-((5-(6-(4-methylpiperazin-1-yl)pyridin-3-yl)-2H-tetrazol-2-yl)methyl)phenyl)-1,3,4-oxadiazole] | 147 | > 200000
7 | CNc1ncc2cc(-c3cn(Cc4ccc(-c5nnc(C(F)F)o5)c(F)c4)nn3)ccc2n1 [compound 393, 6-[1-({4-[5-(difluoromethyl)-1,3,4-oxadiazol-2-yl]-3-fluorophenyl}methyl)-1H-1,2,3-triazol-4-yl]-N-methylquinazolin-2-amine] | 497 | 1e+06
8 | O=C1CCc2ccc(-c3nnn(Cc4ccc(-c5nnc(C(F)F)o5)cc4)n3)cc21 [compound 203, 6-(2-(4-(5-(difluoromethyl)-1,3,4-oxadiazol-2-yl)benzyl)-2H-tetrazol-5-yl)-2,3-dihydro-1H-inden-1-one] | 118 | > 200000
9 | CNc1ccc(-c2nnn(Cc3ccc(-c4nnc(C(F)F)o4)cc3)n2)cc1N [compound 164, 4-(2-(4-(5-(difluoromethyl)-1,3,4-oxadiazol-2-yl)benzyl)-2H-tetrazol-5-yl)-N-1-methylbenzene-1,2-diamine] | 77 | > 200000
10 | FC(F)c1nnc(-c2ccc(Cn3nnnc3-c3cccc(-n4cccn4)c3)cc2)o1 [compound 289, 2-(4-((5-(3-(1H-pyrazol-1-yl)phenyl)-1H-tetrazol-1-yl)methyl)phenyl)-5-(difluoromethyl)-1,3,4-oxadiazole] | 203 | > 200000
11 | Nc1ccc(-c2cc(Cc3ccc(-c4nnc(C(F)F)o4)cc3)on2)cn1 [Compd. 202, 5-(5-(4-(5-(difluoromethyl)-1,3,4-oxadiazol-2-yl)benzyl)isoxazol-3-yl)pyridin-2-amine] | 116 | > 200000
12 | O=C(Nc1ccc(-c2cn(Cc3ccc(-c4nnc(C(F)F)o4)cn3)cn2)cn1)C(F)F [compound 126, N-(5-(1-((5-(5-(difluoromethyl)-1,3,4-oxadiazol-2-yl)pyridin-2-yl)methyl)-1H-imidazol-4-yl)pyridin-2-yl)-2,2-difluoroacetamide] | 49 | > 200000
13 | O=C1Nc2ccc(-c3nnn(Cc4ccc(-c5nnc(C(F)F)o5)cn4)n3)cc2NC12CCCC2 [compound 27, 7′-(2-((5-(5-(difluoromethyl)-1,3,4-oxadiazol-2-yl)pyridin-2-yl)methyl)-2H-tetrazol-5-yl)-1′,4′-dihydro-3′H-spiro[cyclopentane-1,2′-quinoxalin]-3′-one] | 9 | > 200000
14 | CCNc1ncc2cc(-c3cn(Cc4ccc(-c5nnc(C(F)F)o5)c(F)c4)nn3)ccc2n1 [compound 395, 6-(1-(4-(5-(difluoromethyl)-1,3,4-oxadiazol-2-yl)-3-fluorobenzyl)-1H-1,2,3-triazol-4-yl)-N-ethylquinazolin-2-amine] | 857 | 1e+06
15 | Fc1cc(-c2nnc(C(F)F)o2)c(F)cc1Cn1nnc(-c2cccc(-c3nc4c([nH]3)CCNC4)c2)n1 [compound 367, 2-(difluoromethyl)-5-[2,5-difluoro-4-[[5-[3-(4,5,6,7-tetrahydro-1H-imidazo[4,5-c]pyridin-2-yl)phenyl]tetrazol-2-yl]methyl]phenyl]-1,3,4-oxadiazole] | 26 | 168000
16 | [2H]C([2H])(c1ccc(-c2nnc(C(F)F)o2)cc1F)n1cc(-c2ccc3nc(N)sc3c2)nn1 [compound 382, 6-[1-[dideuterio-[4-[5-(difluoromethyl)-1,3,4-oxadiazol-2-yl]-2-fluorophenyl]methyl]triazol-4-yl]-1,3-benzothiazol-2-amine] | 18 | > 1e+06
17 | Nc1cc(-c2nnn(Cc3ccc(-c4nnc(C(F)F)o4)cc3)n2)ccc1O [compound 35, 2-amino-4-(2-(4-(5-(difluoromethyl)-1,3,4-oxadiazol-2-yl)benzyl)-2H-tetrazol-5-yl)phenol] | 16 | > 200000
18 | O=C(NCc1ccco1)c1cccc(-c2nnn(Cc3ccc(-c4nnc(C(F)F)o4)cc3)n2)c1 [compound 96, 3-(2-(4-(5-(difluoromethyl)-1,3,4-oxadiazol-2-yl)benzyl)-2H-tetrazol-5-yl)-N-(furan-2-ylmethyl)benzamide] | 37 | > 200000
19 | CC(C)(C)OC(=O)N1CCC2(C1)C(=O)Nc1ccc(-c3cn(Cc4ccc(-c5nnc(C(F)F)o5)cc4)nn3)cc12 (stereo not drawn) [compound 177, tert-butyl 5-(1-(4-(5-(difluoromethyl)-1,3,4-oxadiazol-2-yl)benzyl)-1H-1,2,3-triazol-4-yl)-2-oxospiro[indoline-3,3′-pyrrolidine]-1′-carboxylate] | 89 | > 200000
20 | O=C1Nc2ccc(-c3nnn(Cc4ccc(-c5nnc(C(F)F)o5)cc4)n3)cc2NC12CCCC2 [compound 110, 7′-(2-(4-(5-(difluoromethyl)-1,3,4-oxadiazol-2-yl)benzyl)-2H-tetrazol-5-yl)-1′,4′-dihydro-3′H-spiro[cyclopentane-1,2′-quinoxalin]-3′-one] | 42 | > 200000
21 | CN1CCN(C(=O)Nc2cccc(-c3cn(Cc4c(F)cc(-c5nnc(C(F)F)o5)cc4F)nn3)c2)CC1 [compound 63, N-(3-(1-(4-(5-(difluoromethyl)-1,3,4-oxadiazol-2-yl)-2,6-difluorobenzyl)-1H-1,2,3-triazol-4-yl)phenyl)-4-methylpiperazine-1-carboxamide] | 28 | > 200000
